ChEMBL document CHEMBL1268998, “Detection of Rap1A as a yessotoxin binding protein from blood cell membranes” (Bioorg Med Chem Lett, 2010)

Assays:
Type in all cases: cell membranes
[1] = target: T1, Ras-related protein Rap-1A (Homo sapiens, UniProt P62834); assay: Binding affinity to RAP1A in human RBC membrane by surface plasmon resonance analysis with inverted configuration
T1 sequence (P62834 whole entry): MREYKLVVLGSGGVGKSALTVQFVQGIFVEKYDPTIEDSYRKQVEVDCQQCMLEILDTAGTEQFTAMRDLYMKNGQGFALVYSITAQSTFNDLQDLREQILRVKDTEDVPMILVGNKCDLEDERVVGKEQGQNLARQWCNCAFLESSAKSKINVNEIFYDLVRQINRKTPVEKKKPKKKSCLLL

[2] = target: T1, Ras-related protein Rap-1A; assay: Binding affinity to RAP1A in human RBC membrane by Western blot analysis
[3] = target: T1, Ras-related protein Rap-1A; assay: Binding affinity to RAP1A in human RBC membrane by surface plasmon resonance analysis

Structure (SMILES)	Kd [1] [µM]	Kd [2] [µM]	Kd [3] [µM]
C=CCC(=C)/C=C/[C@@](C)(O)[C@H]1O[C@@H]2C[C@@H]3O[C@@H]4C[C@@H]5O[C@@H]6C[C@@H]7O[C@@H]8C[C@@H]9O[C@@H]%10C[C@@H]%11O[C@](C)(CCO)[C@@H](O)C[C@H]%11O[C@H]%10C[C@H]9O[C@H]8CC[C@@]7(C)O[C@@]6(C)CC[C@H](C)[C@H]5O[C@H]4[C@@H](O)[C@@]3(C)O[C@H]2CC1=C [DESULFO-YESSOTOXIN]	0.5		
C=CCC(=C)/C=C/[C@@](C)(O)[C@H]1O[C@@H]2C[C@@H]3O[C@@H]4C[C@@H]5O[C@@H]6C[C@@H]7O[C@@H]8C[C@@H]9O[C@@H]%10C[C@@H]%11O[C@](C)(CCOS(=O)(=O)O)[C@@H](OS(=O)(=O)O)C[C@H]%11O[C@H]%10C[C@H]9O[C@H]8CC[C@@]7(C)O[C@@]6(C)CC[C@H](C)[C@H]5O[C@H]4C[C@@]3(C)O[C@H]2CC1=C [YESSOTOXIN]		4	4
